Experimental data: PubChem BioAssay (NCI)
Values joined by “and” are separate entries in the source; they are usually repeats but may differ in a detail not shown here. Identical values can stand only once.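 In this assay, cells in 96-well plates receive the compound at five concentrations for 48 hours. Endpoints are linearly interpolated between the surrounding concentrations. GI50 = concentration required for 50% inhibition of growth. TGI is the concentration that stops growth completely.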

Legend:
Test in all cases: DTP human tumour cell line panel, 48 h
A498 renal = tested on: A498 renal
COLO 205 colon = tested on: COLO 205 colon
LXFL 529 NSCLC = tested on: LXFL 529 NSCLC
OVCAR-3 ovarian = tested on: OVCAR-3 ovarian
SF-268 CNS = tested on: SF-268 CNS
SN12C renal = tested on: SN12C renal
U251 CNS = tested on: U251 CNS
UO-31 renal = tested on: UO-31 renal
DU-145 prostate = tested on: DU-145 prostate
DLD-1 colon = tested on: DLD-1 colon

| SMILES | TGI (A498 renal) | TGI (COLO 205 colon) | TGI (LXFL 529 NSCLC) [µM] | TGI (OVCAR-3 ovarian) | TGI (SF-268 CNS) | TGI (SN12C renal) | TGI (U251 CNS) | TGI (UO-31 renal) | GI50 (A498 renal) [µM] | GI50 (COLO 205 colon) [µM] | GI50 (DU-145 prostate) [µM] | TGI (DU-145 prostate) | GI50 (OVCAR-3 ovarian) [µM] | GI50 (SF-268 CNS) | GI50 (SN12C renal) [µM] | GI50 (U251 CNS) [µM] | GI50 (UO-31 renal) [µM] | TGI (DLD-1 colon) [µM] |
| --- | --- | --- | --- | --- | --- | --- | --- | --- | --- | --- | --- | --- | --- | --- | --- | --- | --- | --- |
| CCCCCCCCCCCCCCCCCCCCCCC(=O)N[C@H]1CCc2cc(OC)c(OC)c(OC)c2-c2ccc(SC)c(=O)cc21 | 40.7 µM | 31.9 µM | > 100 | 60.4 µM | > 100 µM | > 100 µM | 53.2 µM | > 100 µM | – | – | – | – | – | – | – | – | – | – |
| CC1SC(c2ccc(OCc3ccccc3)cc2)N(NC(=O)C(O)(c2ccccc2)c2ccccc2)C1=O (stereo not given) | 13.7 µM | 4.26 µM | – | 6.1 µM | 15 µM | 13.8 µM | 15.3 µM | 21.3 µM | 3.34 | 1.98 | 3.55 | 13.6 µM | 2.36 | 3.66 µM | 3.95 | 4.06 | 3.74 | – |
| O=C(CNC(=O)c1cccc2ccccc12)Nc1ccccc1Oc1ccc(O)cc1 | 9.97 µM | 3.56 µM | – | > 25 µM | > 25 µM | > 25 µM | > 25 µM | > 25 µM | 1.01 | 0.796 | 1.15 | > 25 µM | 0.744 | 3.31 µM | 2.19 | 1.41 | 1.78 | – |
| CNC(=S)N/N=C/CSC/C=N/NC(=S)NC | > 100 µM | > 100 µM | – | > 100 µM | > 100 µM | > 100 µM | > 100 µM | > 100 µM | > 100 | > 100 | > 100 | > 100 µM | > 56.9 | > 100 µM | > 100 | > 100 | > 100 | – |
| C=CC(C)(C)[C@@]12CC3C(=O)N[C@@H](Cc4ccccc4)C(=O)N3[C@@H]1N(C(C)=O)c1ccccc12 (stereo not given in full) | > 100 µM | > 100 µM | > 100 | > 100 µM | – | > 100 µM | > 100 µM | > 100 µM | – | – | – | – | – | – | – | – | – | > 100 |
| O=C(/C=C/c1ccccc1)c1ccccn1 | 29.6 µM and 37.6 µM | 32.9 µM and 45.7 µM | – | 26.8 µM and 43.3 µM | 49.8 µM and 43.9 µM | 27.3 µM and 31.8 µM | 30.5 µM and 35.9 µM | 31 µM and 46.5 µM | – | – | – | 24.8 µM and 40.5 µM | – | 18.8 µM and 2.66 µM | – | – | – | – |
| CCN(CC)CCCC(C)Nc1ccnc2cc(OC)ccc12 (stereo not given) | > 100 µM | 36.8 µM | – | 67.5 µM | > 100 µM | 75.1 µM | > 100 µM | 34.6 µM | 35.3 | 16.1 | 20.6 | 44.4 µM | 23.7 | > 100 µM | 29.7 | 42 | 16.4 | – |
| CN1CC[C@H](N(C)C(=O)N2CC(c3cc(F)ccc3F)=C[C@@]2(CO)c2ccccc2)[C@H](F)C1 | 24.8 µM | 3.77 µM | – | – | > 100 µM | > 100 µM | > 100 µM | > 100 µM | 0.0211 | – | 0.033 | 35.4 µM | 0.0196 | 0.0279 µM | 0.0631 | – | 7.74 | – |
| CCOc1ccc(/C=C/C(=O)c2sc(NNC(C)=O)nc2C)cc1 | > 100 µM | > 100 µM | – | > 100 µM | > 100 µM | > 100 µM | > 100 µM | > 100 µM | – | – | – | – | – | – | – | – | – | > 100 |
